Laboratory results: PMC2749862, “Glucocorticoids with different chemical structures but similar glucocorticoid receptor potency regulate subsets of common and unique genes in human trabecular meshwork cells” (BMC Medical Genomics, 2009)

Legend:
[1] = test system: TM 86 cells; assay: Microarray gene expression profiling in TM 86 cells (with IPA and GoMiner analysis); format: cell-based, human; conditions: 1 μM, 24 hr
Description: (§1) Cells were maintained in low glucose Dulbecco's Modified Eagle Medium (DMEM, Invitrogen, Carlsbad, CA) supplemented with 10% (vol/vol) FBS (American Type Culture Collection, Manassas, VA), 1% (vol/vol) penicillin and streptomycin (Invitrogen). Cells from the human HeLa cervical adenocarcinoma cell line (American Type Culture Collection) were maintained in α-MEM medium supplemented with 10% (v/v) FBS, 1% (v/v) penicillin and streptomycin. All cells were used within passages 3 to 6. […] Cells were maintained for one week with medium renewal every other day. The day before the experiment, confluent TM were washed once with phosphate-buffered saline (PBS) and then the cells were maintained in 1% FBS-containing medium with antibiotics. […] Control cells were treated with 0.1%(v/v) dimethylsulfoxide (DMSO). At the end of GC treatment, supernatant was discarded and the cell monolayer was kept frozen at -80°C for subsequent total RNA extraction and gene expression profiling. […] Briefly, RNA was isolated from flash frozen cell culture plates using RNeasy Mini columns (Qiagen, Valencia, CA) according to the manufacturer's protocol. There were three biological replicates per treatment condition. The quantity and purity of the extracted RNA was evaluated using a NanoDrop ND-1000 spectrophotometer (Nanodrop Technologies, Wilmington, DE, USA) and its integrity measured using an Agilent Bioanalyzer. […] The amount and quality of the fluorescently labeled cRNA was assessed using a NanoDrop ND-1000 spectrophotometer and an Agilent Bioanalyzer. An equal amount of Cy3-labeled cRNA (1.6 μg) was hybridized to the Agilent Human Whole Genome Oligo Microarray (Agilent Technologies) for 17 hours, prior to washing and scanning. Data were extracted from scanned images using Agilent's Feature Extraction Software (Agilent Technologies) using default settings. […] The full complement of microarray data has been deposited in the NIH/NLM Gene Expression Omnibus (GEO accession # GSE16643). […] The lists of differentially expressed genes were also applied to global functional, network and canonical pathway analyses using Ingenuity Pathway Analysis (Ingenuity® Systems, Redwood City, CA).

[2] = target: T1, glucocorticoid receptor (Homo sapiens, UniProt P04150); assay: GR radiolabeled competitive binding assay (IM-9 cell cytosol, [3H]dexamethasone; Cerep); conditions: IM-9 cell cytosol competition curves
T1 sequence (P04150 524-777 limits assumed): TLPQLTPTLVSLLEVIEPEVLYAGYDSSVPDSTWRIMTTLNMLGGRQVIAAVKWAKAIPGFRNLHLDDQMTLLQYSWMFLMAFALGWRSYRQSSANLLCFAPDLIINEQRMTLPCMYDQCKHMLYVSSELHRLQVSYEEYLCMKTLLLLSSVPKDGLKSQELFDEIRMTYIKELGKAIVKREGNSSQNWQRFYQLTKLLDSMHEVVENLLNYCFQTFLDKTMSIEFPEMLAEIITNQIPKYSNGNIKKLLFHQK
Protocol: GR binding affinity assay was performed at Cerep Inc. (Celle l'Evescault, France), according to an established method. […] Nonspecific binding is determined in the presence of 10 μM triamcinolone. Following incubation, the samples are filtered rapidly under vacuum through glass fiber filters (GF/B, Packard) presoaked with 0.3% Poly(ethyleneimine) and rinsed several times with ice-cold 50 mM Tris-HCl using a 96-sample cell harvester (Unifilter, Packard). The filters are dried and counted for radioactivity in a scintillation counter (Topcount, Packard) using a scintillation cocktail (Microscint 0, Packard). The results are expressed as percent inhibition of the control radioligand specific binding. The IC50 values (concentration causing half-maximal inhibition of control specific binding) and Hill coefficients (nH) were determined by non-linear regression analysis of the competition curves generated with mean replicate values using Hill equation curve fitting (Y = D + [(A - D)/(1 + (C/C50)^nH)], where Y = specific binding, D = minimum specific binding, A = maximum specific binding, C = compound concentration, C50 = IC50, and nH = slope factor). […] The inhibition constants (Ki) were calculated using the Cheng Prusoff equation (Ki = IC50/(1+(L/KD)), where L = concentration of radioligand in the assay, and KD = affinity of the radioligand for the receptor). […] The GR binding assay was performed in duplicate.

[3] = test system: TM 93 cells; assay: Microarray gene expression profiling in TM 93 cells (with IPA and GoMiner analysis); format: cell-based, human; conditions: 1 μM, 24 hr
Description: as §1

C[C@@H]1C[C@H]2[C@@H]3CCC4=CC(=O)C=C[C@]4(C)[C@@]3(F)[C@@H](O)C[C@]2(C)[C@@]1(O)C(=O)CO [DEX, dexamethasone]
function of significantly regulated transcripts (Ingenuity Pathway Analysis) [1]: RNA post-transcriptional modifications | number of genes uniquely regulated by each GC [1]: 1761 | significantly regulated biological process (GoMiner gene ontology) [1]: cellular component organization and biogenesis | significantly regulated network (Ingenuity Pathway Analysis) [1]: a network centered around the RNA binding protein S1 or RNPS1 | nH (Hill coefficient) [2]: 1.06 ± 0.18 | function of significantly regulated genes (Ingenuity Pathway Analysis) [3]: histone methylation | number of genes uniquely regulated by each GC [3]: 745 | significantly regulated biological process (GoMiner gene ontology) [3]: membrane lipid metabolic process | significantly regulated network (Ingenuity Pathway Analysis) [3]: a network centered around a histone methyltransferase known as suppressor of zeste 12 homolog or SUZ12
